# Assay results published in patent US12533341B2, “Small molecule inhibitors of voltage-gated sodium channel 1.7 and methods of using same” (Duke University, priority 2019, dated 2026).
# How the values were obtained:
# human Nav1.7 = human Nav1.7 (Homo sapiens, UniProt Q15858); experiment: Whole-cell patch-clamp of sodium currents in Nav1.7-expressing HEK293 cells; assay type: cell-based
# Experimental: HEK-hNav1.7 stable cell line was purchased from SB Drug Discovery (Glasgow, United Kingdom). Human embryonic kidney 293 (HEK293) cells were obtained from the ATCC and maintained at the Duke cell culture facility. Cells were cultured in high-glucose (4.5 g/L) DMEM containing 10% (v/v) FBS (Gibco) and streptomycin/penicillin. For Nav1.7-expressing HEK293 cells, an additional antibiotic, blasticidin, was included. hNav1.5 transfection was performed by Lipofectamine 2000 at 70% confluence using 2 μg cDNA. The transfected cells were cultured in the same growth medium for 48 h before biochemical or electrophysiological studies.
# Whole-cell patch-clamp recordings were conducted at room temperature. Patch pipettes pulled from borosilicate capillaries (World Precision Instruments, Inc., Sarasota, FL) were used to record transient Na currents with an Axopatch-200B amplifier with a Digidata 1440A (Axon Instruments, Sunnyvale CA). The resistance was set to 3-4 MΩ when filled with pipette solution. The pipette solution contained (in mmol/L): CsCl 130, NaCl 9, MgCl2 1, EGTA 10, HEPES 10, adjusted to pH 7.3 with CsOH. The external solution for recording transient Na^+ currents contained (in mmol/L): NaCl 131, TEACl 10, CsCl 10, CaCl2) 1, MgCl2 2, CdCl2 0.3, 4-aminopyridine 3, HEPES 10, glucose 10, adjusted to pH 7.4 with NaOH. The recording chamber (300 μL) was continuously superfused at 3-4 mL/min. Series resistance was compensated (>80%) and leak subtraction was performed. Data were low-pass-filtered at 2 kHz and sampled at 10 kHz. pClamp10 (Axon Instruments) software was used during experiments and analysis. In voltage-clamp experiments, transient Na+ currents were evoked by a test pulse to 0 mV from the holding potential (−70 mV).
# The effects of the 9 selected compounds on Nav1.7 channel activities were tested using patch-clamp recordings on human Nav1.7 expressing HEK293 cells (FIG. 3, FIG. 4). In each cell, sodium currents were recorded for 13 min, and candidate inhibitors (10 μM) were incubated for 2 min after 2 min baseline recording (FIG. 3). Compound was applied at the beginning of the second minute for two minutes (denoted as a horizontal line above the X-axis). Sodium currents were recorded at equal intervals (every 20 seconds, 40 recordings per compound per cell). Data was analyzed with a two-way repeated measures ANOVA, followed by a post-hoc test of the last timepoint Bonferroni-corrected for 9 pairwise comparisons (each compound was compared with control). […] Sample size n=3 to 7 cells per group.
# For FIG. 4C, sample size was n=5 to 7 cells per group. Compound was applied at the beginning of the second minute for two minutes (denoted as a horizontal line above the X-axis). Sodium currents were recorded every 20 seconds.
# [1] = tested on: formalin-induced inflammatory pain; experiment: Formalin-induced nociceptive behavioral test; assay type: in vivo, mouse; settings: mice
# Experimental: The formalin test was conducted following our previously published protocol (Chen, Ji, et al. 2018; Neurosci Bull; 34: 98-108). The animals were acclimatized in a transparent acrylic observation chamber for 2 days before test. Vehicle or active compound were administered intrathecally, intraperitoneally, or intraplantarly, 30 min later followed by an intraplantar injection of 20 μL of 5% formalin. After the formalin injection, mice were immediately placed back in the observation chamber, and videoed for 40 min. The videos were analyzed after experiments in a double blinded way. We assessed formalin-evoked spontaneous pain by measuring the time (in seconds) mice spent on licking or flinching the affected paw every 5 min for […]. Phase I and Phase II were defined as periods of 0-10 min and 10-40 min, respectively.
# For intrathecal injection, spinal cord puncture was made by a Hamilton microsyringe (Hamilton Company, Reno, Nevada) with a 30-G needle between the L5 and L6 level to deliver reagents (5 μL) to the cerebral spinal fluid. For intraperitoneal injection, Vehicle or drug was injected into peritoneal with a 30-G needle. For intraplantar injection, 20 μL vehicle or drug was injected into the surface of the hind paw.
# human Nav1.7, sequence (Q15858 whole entry): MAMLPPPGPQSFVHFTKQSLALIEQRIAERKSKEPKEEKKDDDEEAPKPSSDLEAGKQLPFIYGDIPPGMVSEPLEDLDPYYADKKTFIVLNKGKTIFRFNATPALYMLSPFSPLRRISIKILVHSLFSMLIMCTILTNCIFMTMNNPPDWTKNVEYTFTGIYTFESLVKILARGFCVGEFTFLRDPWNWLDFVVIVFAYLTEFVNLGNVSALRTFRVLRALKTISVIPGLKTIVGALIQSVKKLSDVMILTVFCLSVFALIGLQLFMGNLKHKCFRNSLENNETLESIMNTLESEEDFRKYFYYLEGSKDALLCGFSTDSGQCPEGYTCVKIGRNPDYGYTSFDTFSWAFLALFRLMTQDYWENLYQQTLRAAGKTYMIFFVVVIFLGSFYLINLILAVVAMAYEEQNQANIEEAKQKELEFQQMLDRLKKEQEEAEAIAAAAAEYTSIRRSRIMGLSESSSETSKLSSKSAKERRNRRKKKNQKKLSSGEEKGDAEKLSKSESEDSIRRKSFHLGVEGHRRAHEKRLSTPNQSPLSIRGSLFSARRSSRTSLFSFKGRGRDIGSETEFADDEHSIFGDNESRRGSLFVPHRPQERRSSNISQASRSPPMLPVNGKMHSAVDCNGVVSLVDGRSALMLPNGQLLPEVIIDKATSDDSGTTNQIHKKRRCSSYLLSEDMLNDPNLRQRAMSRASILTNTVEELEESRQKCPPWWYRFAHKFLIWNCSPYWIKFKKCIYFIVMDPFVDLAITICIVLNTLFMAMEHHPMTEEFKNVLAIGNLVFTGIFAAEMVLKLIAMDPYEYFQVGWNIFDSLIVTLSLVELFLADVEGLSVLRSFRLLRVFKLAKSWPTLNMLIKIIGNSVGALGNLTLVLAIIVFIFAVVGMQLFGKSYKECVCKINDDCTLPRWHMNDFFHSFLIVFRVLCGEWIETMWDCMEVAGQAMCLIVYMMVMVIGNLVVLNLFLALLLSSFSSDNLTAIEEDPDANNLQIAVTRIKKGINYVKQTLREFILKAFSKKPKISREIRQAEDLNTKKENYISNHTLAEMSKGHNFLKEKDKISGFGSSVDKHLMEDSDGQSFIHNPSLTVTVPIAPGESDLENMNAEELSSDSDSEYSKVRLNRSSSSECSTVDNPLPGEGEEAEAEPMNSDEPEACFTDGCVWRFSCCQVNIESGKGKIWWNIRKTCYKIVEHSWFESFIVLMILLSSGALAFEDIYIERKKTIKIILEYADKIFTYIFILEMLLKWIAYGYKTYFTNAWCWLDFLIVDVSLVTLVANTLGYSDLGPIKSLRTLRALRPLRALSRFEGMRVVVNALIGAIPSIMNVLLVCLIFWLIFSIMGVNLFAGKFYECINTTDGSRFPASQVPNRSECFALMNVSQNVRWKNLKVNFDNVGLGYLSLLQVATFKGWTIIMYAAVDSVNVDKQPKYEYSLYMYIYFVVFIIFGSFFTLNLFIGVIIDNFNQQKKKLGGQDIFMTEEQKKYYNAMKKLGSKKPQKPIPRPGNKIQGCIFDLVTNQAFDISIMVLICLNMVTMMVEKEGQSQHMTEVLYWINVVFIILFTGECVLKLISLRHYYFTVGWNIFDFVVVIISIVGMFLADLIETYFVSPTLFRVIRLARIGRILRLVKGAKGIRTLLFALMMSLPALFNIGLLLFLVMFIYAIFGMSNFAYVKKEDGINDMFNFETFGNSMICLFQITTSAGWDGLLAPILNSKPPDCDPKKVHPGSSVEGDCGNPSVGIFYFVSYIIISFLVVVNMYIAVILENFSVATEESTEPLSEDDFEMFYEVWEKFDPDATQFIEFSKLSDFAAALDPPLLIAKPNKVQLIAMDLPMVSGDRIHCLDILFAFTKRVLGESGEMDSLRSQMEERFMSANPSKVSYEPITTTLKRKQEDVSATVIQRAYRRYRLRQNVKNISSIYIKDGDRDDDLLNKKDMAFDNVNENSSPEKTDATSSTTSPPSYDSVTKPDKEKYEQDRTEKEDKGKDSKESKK
smiles,measurement,setting,value
"O=C(CC(c1cccc(Oc2ccccc2)c1)c1cn(Cc2ccccc2)c2ccccc12)NCCN1CCCC1 (centres unmarked) [Compound 9, 3-(1-benzyl-1H-indol-3-yl)-3-(3-phenoxyphenyl)-N-(2-(pyrrolidin-1-yl)ethyl)propanamide]",difference in relative current from the control group at the last measurement,"human Nav1.7; 0.01 μM, dose-response (FIG. 4), not significant",0.13
same,difference in relative current from the control group at the last measurement,"human Nav1.7; 0.1 μM, dose-response (FIG. 4)",0.27
same,inhibition of sodium currents vs. control,human Nav1.7; 1 μM,47%
same,difference in relative current from the control group at the last measurement,"human Nav1.7; 1 μM, dose-response (FIG. 4)",0.47
same,difference in relative current from the control group at the last measurement,"human Nav1.7; 10 μM, dose-response (FIG. 4)",0.76
same,difference in relative current from the control group at the last measurement,"human Nav1.7; 10 μM, screen of compounds 1-9 (FIG. 3)",0.71
same,IC50,"human Nav1.7; Nav1.7-expressing HEK293 cells, dose-response, read-out: 50% inhibition concentration (IC50)",0.74 µM
same,inhibition of formalin-induced pain in Phase II,[1]; intraperitoneal 30 mg/kg,76%
same,inhibition of formalin-induced pain in Phase II,[1]; intraplantar 60 nmol,significant inhibition
same,effect on formalin Phase I response,[1]; intrathecal 30 nmol,reduced Phase I response
same,inhibition of formalin-induced second-phase (Phase II) pain,"[1]; intrathecal (3, 10 and 30 nmol)",80%
